According to PMC11249626, “Fluorophore-Labeled Pyrrolones Targeting the Intracellular Allosteric Binding Site of the Chemokine Receptor CCR1” (ACS Pharmacology & Translational Science, 2024):

Key:
CXCR2 = target: T1, CXCR2 (Homo sapiens, UniProt P25025); assay: NanoBRET-based assay for binding to the IABS of CXCR2, as previously reported; details: up to a concentration of 20 μM
T1 construct: host or cells: HEK293T, transient
T1 sequence (P25025 1-360): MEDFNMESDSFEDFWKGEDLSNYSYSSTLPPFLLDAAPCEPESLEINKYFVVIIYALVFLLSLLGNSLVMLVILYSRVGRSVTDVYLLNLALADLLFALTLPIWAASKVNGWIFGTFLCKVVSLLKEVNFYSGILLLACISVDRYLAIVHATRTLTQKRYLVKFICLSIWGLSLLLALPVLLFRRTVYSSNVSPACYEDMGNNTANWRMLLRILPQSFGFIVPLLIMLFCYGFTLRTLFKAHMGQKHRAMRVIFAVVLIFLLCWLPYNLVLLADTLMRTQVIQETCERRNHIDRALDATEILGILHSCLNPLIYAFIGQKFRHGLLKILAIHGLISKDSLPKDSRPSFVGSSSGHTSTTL
Excerpt: (§1) With 6 (Figure 1), a first lead structure for intracellular CCR1 inhibition that features an approximately 20-fold CCR1 over CCR2 selectivity was previously discovered by Ortiz Zacarías et al.([33]) In order to discover new chemotypes for selective CCR1 over CCR2 inhibition, we aimed to apply our novel NanoBRET competition binding assay for CCR1 in combination with our recently published CCR2 competition binding assay based on 7.[47] In our first attempt, we screened a small in-house library enriched with intracellular GPCR ligands and structural analogues thereof. […] Additionally, we tested 23 for binding to the IABS of CCR9 and CXCR2 using our recently reported NanoBRET-based assay platform (Figure 6C).[44],[45] In the course of these studies, we detected no binding of 23 to CCR9 and CXCR2 up to a concentration of 20 μM. Since cell lineage-dependent effects have been observed for CCR1 antagonists,[59] we studied the CCR1 over CCR2 selectivity of 23 by using a previously reported radioligand binding assay with membrane preparations from osteosarcoma (U2OS) cells stably expressing human CCR1 or CCR2.[33] […] In agreement with these previous reports,[33] we observed a reduction in CCR1 over CCR2 selectivity when moving from membrane-based binding assays to cell-based functional assays. […]

CCR9 = target: T2, CCR9 (Homo sapiens, UniProt P51686); assay: NanoBRET-based assay for binding to the IABS of CCR9, as previously reported; details: up to a concentration of 20 μM
T2 construct: host or cells: HEK293T, transient
T2 sequence (P51686 1-369): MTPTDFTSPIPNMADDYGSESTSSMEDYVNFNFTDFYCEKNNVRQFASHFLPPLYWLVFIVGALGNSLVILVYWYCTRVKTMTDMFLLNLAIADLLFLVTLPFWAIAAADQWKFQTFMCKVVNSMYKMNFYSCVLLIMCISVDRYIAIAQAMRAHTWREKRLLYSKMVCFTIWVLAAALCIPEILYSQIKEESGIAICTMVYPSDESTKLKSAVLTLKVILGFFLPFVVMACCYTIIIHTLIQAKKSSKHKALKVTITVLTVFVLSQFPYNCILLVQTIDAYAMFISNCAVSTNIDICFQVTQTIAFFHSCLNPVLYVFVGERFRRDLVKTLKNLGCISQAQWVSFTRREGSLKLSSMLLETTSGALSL
Excerpt: as §1

Binding to the IABS of CXCR2 (CXCR2): no binding | Binding to the IABS of CCR9 (CCR9): no binding
SMILES: O=C(C1=C(O)C(=O)N(CCc2ccc(O)cc2)C1c1ccc(F)cc1)c1ccccc1 (racemic) [compound 23]
